According to patent US20090098050A1, “CALCIUM BINDING PEPTIDES” (THE REGENTS OF THE UNVERSITY OF CALIFORNIA, priority 2005, published 2009):

How the values were obtained:
[1] = Binding to calcium oxalate crystals (fluorescence microscopy); settings: 12.5 μM labeled peptide, ten minutes
Protocol: FIG. 11: Binding of 8DSS peptide to calcium oxalate. Calcium oxalate crystals were exposed to 12.5 μM 8DSS peptide, washed, and imaged by fluorescence microscopy as described in Example 12. […] The brightfield image (top) confirms the presence of crystals, while the fluorescence image of the same region (bottom) confirms that calcium oxalate has no visible fluorescence under these conditions. […] Calcium oxalate was prepared using a previously described method (Wang 2006). Crystals of calcium oxalate were washed with deionized water, then resuspended in a solution containing 50 mM HEPES pH 7.0, 10 mM NaCl, and 12.5 μM 5(6)-carboxyfluorescein-labeled 8DSS peptide. The crystal suspension was incubated at room temperature for ten minutes. The crystals were then harvested by centrifugation, washed twice with a solution of 50 mM HEPES pH 7.0 and 10 mM NaCl, and visualized by fluorescence microscopy as described in Example 11.

[2] = Remineralization of demineralized rat femur (SEM); settings: peptide one hour, then Quell Desensitizer
Protocol: FIG. 7: Mineralization of bone. Rat femurs were obtained from sacrificed animals under a shared tissue protocol. Samples were demineralized, rinsed, and ultrasonicated to remove debris. Test samples were treated with 8DSS peptide for one hour, rinsed, remineralized using Quell Desensitizer as described in Example 8, then imaged by Scanning Electron Microscopy. SEM images are shown. Top: untreated sample, showing the surface of the bone completely covered by mineral. Center: demineralized sample, showing Haversian canals exposed by removal of the mineral layer. Bottom: Bone treated with 8DSS and Quell Desensitizer (an aqueous CaCl2/K2HPO4 solution), showing reestablishment of the mineral layer.
In order to determine whether the remineralization results observed for tooth tissues can be extended to bone, rat femurs were obtained from sacrificed animals under a shared tissue protocol. Test samples were demineralized with 19% EDTA gel for one hour, followed by immersion in deionized water and ultrasonication to remove excess debris. Test samples were then treated with 8DSS peptide for one hour, rinsed, and half of the samples were remineralized using Quell Desensitizer (Pentron Clinical Technologies, LLC) as described in Example 5. All samples were then prepared for SEM and imaged as in Example 5. […] In the demineralized sample, the Haversian canals were clearly exposed (FIG. 7, middle panel). […]

[3] = Tissue specificity of binding in demineralized and nondemineralized teeth (CLSM); set-up: species or system human; settings: 12.5 μM labeled peptide
Protocol: FIG. 6: Tissue specificity of 8DSS peptide binding and its dependence on mineralization state. Demineralized and nondemineralized human teeth samples were incubated with 12.5 μM 5(6)-carboxyfluorescein-labeled 8DSS peptide as described in Example 9, and sections were rinsed and imaged by CLSM. […] The dentin-enamel junction, labeled DEJ, is clearly demarcated in both cases.
Sagitally sectioned human teeth were either demineralized by incubation with 0.5 M EDTA for 15 minutes or left nondemineralized. Samples were then incubated for ten minutes in a solution of 12.5 μM 5(6)-carboxyfluorescein-labeled 8DSS, 10 mM NaCl, and 50 mM HEPES, pH 7.0. Control samples were incubated without peptide. Sections were then rinsed and imaged by CLSM using identical laser and camera settings.

[4] = Preferential binding to carious lesions in teeth (CLSM); set-up: species or system human; settings: labeled peptide, settings optimized per sample
Protocol: FIG. 9: Fluorescence micrographs showing specific binding of DSS peptides and variants to carious lesions in teeth. Adult human teeth were exposed to 12.5 uM 5(6)-carboxyfluorescein-labeled peptide without demineralization, washed extensively, and imaged by CLSM. Microscope and camera settings were optimized separately for each sample. […] White traces on the right side of each panel identify the position of the tooth surface, while arrows indicate the position of the stained lesion.
Sections of human teeth containing obvious carious lesions, which consist of demineralized enamel, were polished and exposed to 5(6)-carboxyfluorescein-labeled DSS peptides and variants using the protocol described in Example 2. The sections were washed extensively and imaged by CLSM using blue laser illumination (λ=488 nm) and a FITC emission filter, with microscope and camera settings adjusted for each sample to optimize the signal detected from each peptide. The images were examined to identify the relative levels of peptide binding in healthy versus carious tissue. […] Given their ability to remineralize at sites of enamel degradation (Example 6), they can also be used to initiate remineralization at sites of enamel degradation such as caries or injury sites without causing inappropriate nucleation on healthy tissue surfaces.

8DSS: peptide containing eight Asp-Ser-Ser (DSS) repeats, SEQ ID NO:15 (DSSDSSDSSDSSDSSDSSDSSDSS; calcium binding peptide containing eight DSS repeats, 8DSS)
Staining of calcium oxalate aggregates [1]: significant staining
Remineralization of demineralized bone surface [2]: the mineral surface was restored and occlusion of the canals was observed
Binding pattern in demineralized tooth tissue ([3]; demineralized sample): Primary binding is to the demineralized enamel (E) with little binding to the dentin (D)
Binding pattern in nondemineralized tooth tissue ([3]; nondemineralized sample): primary binding is to the dentin (D) with little or no binding to the enamel (E)
Specificity of binding to carious lesions versus surrounding healthy enamel [4]: highly specific binding to carious lesions
Strength of staining of carious lesions [4]: exceptionally strong staining of carious lesions
